In brackets after ≈: the same amount, converted by molar mass.
Test system: Histophilus somni
Test: minimum inhibitory concentration (MIC)
Description: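 Broth microdilution MIC (Sensititre BOPO7F bovine plate, CLSI methods) of 19 antimicrobials against field isolates of P. multocida, M. haemolytica, H. somni (deep nasopharyngeal swabs) and E. coli, Enterococcus spp. (rectal swabs) from weaned dairy heifers. Incubation 16-24 h at 35 C. MIC is the lowest concentration preventing visible growth. Values with <= or > lie at the tested range limits. Trimethoprim-sulfamethoxazole is given as the trimethoprim component of a 1:19 mixture.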

CC1(C)S[C@@H]2[C@H](NC(=O)[C@H](N)c3ccccc3)C(=O)N2[C@H]1C(=O)O [Ampicillin]
Settings | minimum inhibitory concentration [µg/mL]
isolate (source animal id): 3 | ≤ 0.25
isolate (source animal id): 4 | 0.5 (≈ 1.43 µM)
isolate (source animal id): 7 | ≤ 0.25
isolate (source animal id): 14 | ≤ 0.25
isolate (source animal id): 15 | ≤ 0.25
isolate (source animal id): 17 | ≤ 0.25
isolate (source animal id): 18 | ≤ 0.25
isolate (source animal id): 20 | ≤ 0.25
isolate (source animal id): 23 | ≤ 0.25
isolate (source animal id): 45 | ≤ 0.25
isolate (source animal id): 53 | ≤ 0.25
isolate (source animal id): 83 | ≤ 0.25
isolate (source animal id): 88 | ≤ 0.25
isolate (source animal id): 92 | ≤ 0.25
isolate (source animal id): 93 | ≤ 0.25
isolate (source animal id): 99 | ≤ 0.25
isolate (source animal id): 100 | ≤ 0.25
isolate (source animal id): 105 | ≤ 0.25
isolate (source animal id): 107 | ≤ 0.25
isolate (source animal id): 108 | ≤ 0.25
isolate (source animal id): 109 | ≤ 0.25
isolate (source animal id): 110 | ≤ 0.25
isolate (source animal id): 117 | ≤ 0.25
isolate (source animal id): 121 | ≤ 0.25
isolate (source animal id): 123 | ≤ 0.25
isolate (source animal id): 124 | ≤ 0.25
isolate (source animal id): 127 | ≤ 0.25
isolate (source animal id): 128 | ≤ 0.25
isolate (source animal id): 130 | > 16
isolate (source animal id): 132 | ≤ 0.25
isolate (source animal id): 135 | ≤ 0.25
isolate (source animal id): 140 | ≤ 0.25
isolate (source animal id): 141 | ≤ 0.25
isolate (source animal id): 142 | ≤ 0.25
isolate (source animal id): 144 | ≤ 0.25
isolate (source animal id): 146 | ≤ 0.25
isolate (source animal id): 147 | ≤ 0.25
isolate (source animal id): 151 | ≤ 0.25
isolate (source animal id): 153 | ≤ 0.25
isolate (source animal id): 154 | ≤ 0.25
isolate (source animal id): 156 | ≤ 0.25
isolate (source animal id): 157 | ≤ 0.25
isolate (source animal id): 176 | ≤ 0.25
isolate (source animal id): 183 | ≤ 0.25
isolate (source animal id): 186 | ≤ 0.25
isolate (source animal id): 196 | ≤ 0.25
isolate (source animal id): 198 | ≤ 0.25
isolate (source animal id): 200 | ≤ 0.25
isolate (source animal id): 206 | ≤ 0.25
isolate (source animal id): 208 | ≤ 0.25
isolate (source animal id): 210 | ≤ 0.25
isolate (source animal id): 212 | ≤ 0.25
isolate (source animal id): 215 | ≤ 0.25
isolate (source animal id): 216 | ≤ 0.25
isolate (source animal id): 218 | ≤ 0.25
isolate (source animal id): 219 | ≤ 0.25
isolate (source animal id): 224 | ≤ 0.25
isolate (source animal id): 228 | ≤ 0.25
isolate (source animal id): 230 | ≤ 0.25
isolate (source animal id): 233 | ≤ 0.25
isolate (source animal id): 238 | ≤ 0.25
isolate (source animal id): 239 | ≤ 0.25
isolate (source animal id): 241 | ≤ 0.25
isolate (source animal id): 242 | ≤ 0.25
isolate (source animal id): 243 | ≤ 0.25
isolate (source animal id): 245 | ≤ 0.25
isolate (source animal id): 246 | ≤ 0.25
isolate (source animal id): 247 | ≤ 0.25
isolate (source animal id): 248 | ≤ 0.25
isolate (source animal id): 250 | ≤ 0.25
isolate (source animal id): 251 | ≤ 0.25
isolate (source animal id): 252 | ≤ 0.25
isolate (source animal id): 254 | ≤ 0.25
isolate (source animal id): 258 | ≤ 0.25
isolate (source animal id): 259 | ≤ 0.25
isolate (source animal id): 262 | ≤ 0.25
isolate (source animal id): 264 | ≤ 0.25
isolate (source animal id): 265 | 4 (≈ 11.4 µM)
isolate (source animal id): 266 | ≤ 0.25
isolate (source animal id): 267 | ≤ 0.25
isolate (source animal id): 269 | ≤ 0.25
isolate (source animal id): 271 | ≤ 0.25
isolate (source animal id): 272 | 4 (≈ 11.4 µM)
isolate (source animal id): 274 | ≤ 0.25
isolate (source animal id): 276 | ≤ 0.25
isolate (source animal id): 278 | ≤ 0.25
isolate (source animal id): 280 | 1 (≈ 2.86 µM)
isolate (source animal id): 281 | ≤ 0.25
isolate (source animal id): 283 | ≤ 0.25
isolate (source animal id): 288 | ≤ 0.25
isolate (source animal id): 291 | ≤ 0.25
isolate (source animal id): 292 | ≤ 0.25
isolate (source animal id): 296 | ≤ 0.25
isolate (source animal id): 306 | ≤ 0.25
isolate (source animal id): 336 | ≤ 0.25
isolate (source animal id): 337 | ≤ 0.25
isolate (source animal id): 341 | ≤ 0.25
